The values that follow come from publication PMC6102643, “Different Benzodiazepines Bind with Distinct Binding Modes to GABAA Receptors” (ACS Chemical Biology, 2018).

Assay [1] has as its system α2-containing GABAA receptors. Further details: method as in PMID 20727364. To be noted: versus SH-053-2′F-S-CH3; cited from earlier work.
The next assay deals with GABAA receptors. Further details: method as in PMID 17392731, PMID 20727364. To be noted: cited from earlier work.
Assay [2] concerns α1-, α3-, and α5-containing GABAA receptors. Further details: method as in PMID 20727364. To be noted: versus SH-053-2′F-S-CH3; cited from earlier work.
Assay [3] has as its target T1, recombinant rat GABAA receptor α3β3γ2 (Rattus norvegicus, UniProt P18508+P20236).
T1 construct: expressed in transfected cells; host or cells: HEK-293
The assay is described as follows: [3H]flunitrazepam radioligand displacement, α3β3γ2. It is filed as binding. On the procedure:
(§1) To exclude a binding behavior unique to α2-containing receptors, we also performed similar radioligand displacement studies on other receptor combinations such as recombinantly expressed rat GABAA receptor subtypes α1β3γ2, α3β3γ2, and α5β3γ2 (see Figure S2).
(§2) Radioligand displacement assays were performed in HEK-293 cells transfected with recombinant rat αxβ3γ2 receptors (x = 1, 2, 3, or 5) using 2 nM [^3H]flunitrazepam and 1 nM to 10 μM investigated compound as described previously.[20] Two-electrode voltage clamp recordings were performed on X. laevis oocytes treated with mRNA for the desired subunit combination at a GABA concentration eliciting 3% of the maximum current.[21]
(§3) Inhibition of [3H]flunitrazepam binding to recombinant α1β3γ2, α2β3γ2, α3β3γ2, α5β3γ2 GABA A
(§4) receptors subtypes. Membranes from HEK 293 cells transfected with GABAA receptor
(§5) subunit combination, (α1β3γ2, α2β3γ2, α3β3γ2, α5β3γ2) were incubated with 2 nM
(§6) [3H]flunitrazepam in the presence of various concentrations of GABAA -R ligands investigated.
(§7) Data shown represent mean ± SEM of three experiments performed in duplicates each. […]
In general terms: Loss of bound radioactivity is the signal in a displacement assay; it reports binding, not function.

In assay [4] the target is T2, recombinant rat GABAA receptor α1β3γ2 (Rattus norvegicus, UniProt P18508+P62813).
T2 construct: expressed in transfected cells; host or cells: HEK-293
T2 sequence (P62813 28-455): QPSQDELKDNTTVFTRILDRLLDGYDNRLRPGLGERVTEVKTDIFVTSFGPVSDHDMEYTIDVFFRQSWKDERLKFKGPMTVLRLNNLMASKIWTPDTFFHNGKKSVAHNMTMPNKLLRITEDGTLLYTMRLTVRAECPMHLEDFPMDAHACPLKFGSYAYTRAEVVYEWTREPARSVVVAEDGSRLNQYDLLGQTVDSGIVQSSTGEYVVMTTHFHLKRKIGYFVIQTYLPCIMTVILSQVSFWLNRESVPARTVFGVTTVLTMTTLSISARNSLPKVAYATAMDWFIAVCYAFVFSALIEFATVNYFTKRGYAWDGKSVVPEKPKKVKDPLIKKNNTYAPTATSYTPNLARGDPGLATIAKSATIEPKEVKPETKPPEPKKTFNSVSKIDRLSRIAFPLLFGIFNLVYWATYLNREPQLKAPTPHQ
T2 sequence (P63079 26-473 partner): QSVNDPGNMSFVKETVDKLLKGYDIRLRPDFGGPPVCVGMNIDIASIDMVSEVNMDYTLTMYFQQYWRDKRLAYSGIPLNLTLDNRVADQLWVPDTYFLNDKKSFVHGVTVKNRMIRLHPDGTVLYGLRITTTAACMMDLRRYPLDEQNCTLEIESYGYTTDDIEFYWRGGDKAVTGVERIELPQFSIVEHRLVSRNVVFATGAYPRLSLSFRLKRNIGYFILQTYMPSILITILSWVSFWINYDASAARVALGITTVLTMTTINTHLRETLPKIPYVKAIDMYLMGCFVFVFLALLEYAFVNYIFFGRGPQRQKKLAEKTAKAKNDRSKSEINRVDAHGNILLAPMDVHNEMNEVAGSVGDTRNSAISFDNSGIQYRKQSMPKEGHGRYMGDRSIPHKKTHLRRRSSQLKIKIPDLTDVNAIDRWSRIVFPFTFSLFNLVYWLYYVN
T2 sequence (P18508 39-466): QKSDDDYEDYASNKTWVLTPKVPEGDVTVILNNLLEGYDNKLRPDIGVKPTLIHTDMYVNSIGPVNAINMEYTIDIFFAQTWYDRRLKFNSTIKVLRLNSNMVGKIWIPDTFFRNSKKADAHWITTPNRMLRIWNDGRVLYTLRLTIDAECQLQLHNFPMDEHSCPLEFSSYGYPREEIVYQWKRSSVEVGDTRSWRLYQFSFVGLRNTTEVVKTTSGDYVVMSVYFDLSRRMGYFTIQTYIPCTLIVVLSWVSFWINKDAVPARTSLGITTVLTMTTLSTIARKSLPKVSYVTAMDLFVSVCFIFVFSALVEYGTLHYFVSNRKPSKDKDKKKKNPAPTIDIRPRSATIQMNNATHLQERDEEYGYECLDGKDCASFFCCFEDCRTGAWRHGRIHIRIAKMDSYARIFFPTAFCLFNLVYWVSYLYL
Briefly: [3H]flunitrazepam radioligand displacement, α1β3γ2. It is filed as binding. On the procedure:
as §1, §2, §3, §4, §5, §6, §7

Assay [5] concerns the target T3, recombinant rat GABAA receptor α2β3γ2 (Rattus norvegicus, UniProt P18508+P23576).
T3 construct: expressed in transfected cells; host or cells: HEK-293
The assay is described as follows: [3H]flunitrazepam radioligand displacement, α2β3γ2. It is filed as binding. To be noted: for displacement of [3H]flunitrazepam at α2β3γ2 (in words): 2 nM [3H]flunitrazepam, HEK-293 membranes. The protocol:
To test our predictions, we performed radioligand displacement studies and compared the potencies of our six chiral benzodiazepine ligands for the inhibition of binding of [^3H]flunitrazepam to α2β3γ2 recombinant rat GABAA receptor subtypes (see Figure 4).
Figure 4 Inhibition of binding of [^3H]flunitrazepam to recombinant α2β3γ2 GABAA receptor subtypes. Membranes from HEK-293 cells transfected with the GABAA receptor subunit combination α2β3γ2 were incubated with 2 nM [^3H]flunitrazepam in the presence of various concentrations of the six BZ site ligands. Data shown are the means ± the standard error of the mean of three independent experiments each performed in duplicate.
as §2, §3, §4, §5, §6, §7

The test system of assay [6] is recombinant rat αxβ3γ2 receptors (x = 1, 2, 3, or 5). The assay is described as follows: [3H]flunitrazepam radioligand displacement, all receptor subtypes tested. It is filed as binding. To be noted: for displacement of [3H]flunitrazepam in all receptor subtypes (in words): α1β3γ2, α2β3γ2, α3β3γ2, α5β3γ2, even at high micromolar concentrations for non-binders; for subtype selectivity of binding (in words): across α1, α2, α3, α5 subtypes. The protocol:
as §1
However, we did observe differences in the potency rank order.
as §2

For assay [7], the target named is T4, recombinant rat GABAA receptor α5β3γ2 (Rattus norvegicus, UniProt P18508+P19969).
T4 construct: expressed in transfected cells; host or cells: HEK-293
T4 sequence (P19969 32-464 limits assumed): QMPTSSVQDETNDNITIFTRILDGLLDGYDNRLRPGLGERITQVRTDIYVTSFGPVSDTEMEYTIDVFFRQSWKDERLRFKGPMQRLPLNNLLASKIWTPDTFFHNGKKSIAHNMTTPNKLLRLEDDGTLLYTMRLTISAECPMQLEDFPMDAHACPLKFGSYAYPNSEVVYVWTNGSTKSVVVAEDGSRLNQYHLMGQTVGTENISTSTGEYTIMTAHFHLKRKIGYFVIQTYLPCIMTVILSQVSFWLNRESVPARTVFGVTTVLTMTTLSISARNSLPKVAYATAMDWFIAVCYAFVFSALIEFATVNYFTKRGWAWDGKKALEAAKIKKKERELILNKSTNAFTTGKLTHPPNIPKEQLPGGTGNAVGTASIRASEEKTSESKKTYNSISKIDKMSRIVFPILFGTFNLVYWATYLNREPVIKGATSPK
T4 sequence (P63079 26-473 partner): as the sequence (P63079 26-473 partner) above
T4 sequence (P18508 39-466): as the sequence (P18508 39-466) above
Briefly: [3H]flunitrazepam radioligand displacement, α5β3γ2. It is filed as binding. To be noted: for preference / selectivity for α5-containing receptors: binding affinity at α5 versus other receptor subtypes. The protocol:
as §1, §2, §3, §4, §5, §6, §7

Assay [8] concerns α1β3γ2, α3β3γ2, and α5β3γ2 GABAA receptors. Briefly: Two-electrode voltage clamp recordings, other receptor combinations in oocytes. To be noted: α1β3γ2, α3β3γ2, α5β3γ2 (and α2β3γ2); Figure S3. It is filed as cell-based. The protocol: In addition to the analysis of α2β3γ2-containing GABAA receptors, we also performed similar electrophysiological studies of other receptor combinations such as α1β3γ2, α3β3γ2, and α5β3γ2 (see Figure S3).
as §2
For orientation: Two-electrode voltage clamp is typically applied to oocytes expressing channels or transporters.

The target in a further assay is T5, α2β3γ2-GABAA receptors (Rattus norvegicus, UniProt P18508+P23576).
T5 construct: expressed in transfected cells; host or cells: Xenopus laevis oocytes (mRNA injected)
T5 sequence (P23576 29-451): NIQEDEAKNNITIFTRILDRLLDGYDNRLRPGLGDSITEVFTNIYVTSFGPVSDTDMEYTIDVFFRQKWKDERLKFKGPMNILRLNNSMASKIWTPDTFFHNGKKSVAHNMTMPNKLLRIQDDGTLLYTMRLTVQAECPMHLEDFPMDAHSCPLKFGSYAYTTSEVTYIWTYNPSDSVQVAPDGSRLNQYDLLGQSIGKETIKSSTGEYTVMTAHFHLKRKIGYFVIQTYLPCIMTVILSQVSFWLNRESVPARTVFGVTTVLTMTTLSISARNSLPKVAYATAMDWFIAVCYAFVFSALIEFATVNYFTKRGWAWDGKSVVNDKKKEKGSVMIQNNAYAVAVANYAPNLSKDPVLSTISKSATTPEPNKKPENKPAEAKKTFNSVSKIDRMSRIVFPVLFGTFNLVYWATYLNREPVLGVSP
T5 sequence (P63079 26-473 partner): as the sequence (P63079 26-473 partner) above
T5 sequence (P18508 39-466): as the sequence (P18508 39-466) above
Briefly: Two-electrode voltage clamp recordings, α2β3γ2 in Xenopus laevis oocytes. It is filed as cell-based. To be noted: GABA eliciting 3% of maximum current; for activity in the oocyte assay at drug concentrations of ≤1 μM: drug ≤1 μM.
Description: Radioligand displacement assays provide information about the binding of a compound to only a specific binding site. To exclude the possibility that compounds 2-R and 3-R bind at a site different from the [^3H]flunitrazepam binding site (and are therefore unable to compete with the radioligand), we decided to determine the efficacies of all our test compounds using two-electrode voltage clamp recordings on α2β3γ2-mRNA-treated Xenopus laevis oocytes (see Figure 5).
Figure 5 Concentration–response curves of drug-induced enhancement of GABA currents. X. laevis oocytes were treated with mRNA for α2β3γ2-GABAA receptors and studied using two-electrode voltage clamp recordings. GABA-induced currents (3% of maximum) were modulated by addition of drug. Data are means ± the standard error of the mean of three independent experiments.
as §2

Each structure is given as a SMILES string. Bounds are passed on as bounds.

T1 sequence (P20236 29-493): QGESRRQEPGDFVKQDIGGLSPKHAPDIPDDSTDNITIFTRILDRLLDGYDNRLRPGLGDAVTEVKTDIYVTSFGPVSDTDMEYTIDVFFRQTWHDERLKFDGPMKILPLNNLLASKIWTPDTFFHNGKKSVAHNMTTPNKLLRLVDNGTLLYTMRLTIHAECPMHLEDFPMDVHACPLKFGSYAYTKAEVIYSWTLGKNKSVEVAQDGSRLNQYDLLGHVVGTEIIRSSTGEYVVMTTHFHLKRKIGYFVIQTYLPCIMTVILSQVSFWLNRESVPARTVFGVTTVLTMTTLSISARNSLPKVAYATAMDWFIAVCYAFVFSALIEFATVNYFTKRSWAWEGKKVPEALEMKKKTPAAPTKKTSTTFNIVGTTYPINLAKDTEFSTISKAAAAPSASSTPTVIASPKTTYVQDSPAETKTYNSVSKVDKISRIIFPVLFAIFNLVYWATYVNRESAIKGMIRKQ
T1 sequence (P63079 26-473 partner): as the sequence (P63079 26-473 partner) above
T1 sequence (P18508 39-466): as the sequence (P18508 39-466) above
T3 sequence (P23576 29-451): as the sequence (P23576 29-451) above
T3 sequence (P63079 26-473 partner): as the sequence (P63079 26-473 partner) above
T3 sequence (P18508 39-466): as the sequence (P18508 39-466) above

Take `C#Cc1ccc2c(c1)C(c1ccccc1F)=N[C@H](C)c1c(C(=O)OCC)ncn1-2` [SH-053-2′F-R-CH3]: the “lower affinity compared to the S isomer, α2-containing receptors” value in assay [1] is 30 fold. Moreover, in the assay on GABAA receptors, the “binding to GABAA receptors (in words)” value is reported as “high affinity”. The “lower affinity compared to the S isomer, α1-, α3-, and α5-containing receptors” value in assay [2] is 3–5 fold.
Consider `C#Cc1ccc2c(c1)C(c1ccccc1F)=N[C@@H](C)c1c(C(=O)OCC)ncn1-2` [SH-053-2′F-S-CH3], for which the “binding to GABAA receptors (in words)” value with GABAA receptors was “high affinity”.
A word on the Ki: it is a measure of affinity in units of concentration, obtained from inhibition or displacement. With `CCOC(=O)c1ncn2c1[C@@H](C)N=C(c1ccccc1F)c1cc(Br)ccc1-2` [compound 1-R], the Ki in [3] is 501 ± 79 nM; in [4], 273 ± 41 nM; in assay [5], 253 ± 31 nM; in assay [7], 56 ± 8 nM. The “displacement of [3H]flunitrazepam at α2β3γ2 (in words)” value (shortened to “displacement … at α2β3γ2 (in words)”) in [5] is given as “retained its potential to displace the radioligand”. Moreover, the “displacement of [3H]flunitrazepam in all receptor subtypes (in words)” value in assay [6] is “potently replaced”. For the same compound, in assay [7], the “preference / selectivity for α5-containing receptors” value is approximately 5 fold. In addition, the “modulation of GABA currents in all receptor subtypes (in words)” value (shortened to “modulation of GABA currents”) in [8] was “positive modulation”. At α2β3γ2-GABAA receptors, the “modulation of GABA-induced chloride ion flux (in words)” value is given as “positive allosteric modulators”.
Regarding `CCOC(=O)c1ncn2c1[C@H](C)N=C(c1ccccc1F)c1cc(Br)ccc1-2` [compound 1-S], the Ki in [3] was found to be 136 ± 24 nM; in [4], 190 ± 55 nM; in assay [5], 67 ± 9 nM; in assay [7], 17 ± 5 nM. The “displacement … at α2β3γ2 (in words)” value in assay [5] is “intermediate to high binding affinities”. The “displacement of [3H]flunitrazepam in all receptor subtypes (in words)” value in assay [6] is listed as “potently replaced”. In assay [7], the “preference / selectivity for α5-containing receptors” value is listed as more than 4 fold. Further, in assay [8], the “modulation of GABA currents” value is recorded as “positive modulation”. The “modulation of GABA-induced chloride ion flux (in words)” value on α2β3γ2-GABAA receptors is on record as “positive allosteric modulators”.
As for `C#Cc1ccc2c(c1)C(c1ccccc1)=N[C@H](C)c1nnc(C)n1-2` [compound 2-R], the Ki in assay [3], in assay [4], in [5] and in [7] was more than 10000 nM throughout. The “displacement … at α2β3γ2 (in words)” value in [5] was “inactive”. In addition, the “displacement of [3H]flunitrazepam in all receptor subtypes (in words)” value in [6] was “failed to displace”. The “modulation of GABA currents” value in assay [8] is “mainly modulatory silent”. The “modulation of GABA-induced currents at 10 μM” value on α2β3γ2-GABAA receptors (drug 10 μM) was “slight positive modulation”. The “activity in the oocyte assay at drug concentrations of ≤1 μM” value on α2β3γ2-GABAA receptors was “complete loss of activity”.
`C#Cc1ccc2c(c1)C(c1ccccc1)=N[C@@H](C)c1nnc(C)n1-2` [compound 2-S]: the Ki in assay [3] came to 656 ± 110 nM; in [4], 663 ± 21 nM; in [5], 164 ± 15 nM; in assay [7] it was 80 ± 4 nM. In addition, the “displacement … at α2β3γ2 (in words)” value in assay [5] is recorded as “intermediate to high binding affinities”. The “subtype selectivity of binding (in words)” value in [6] is “significant higher binding affinities in α2 and α5 GABAAR subtypes than in α1 and α3 subtypes”. For the same compound, the “displacement of [3H]flunitrazepam in all receptor subtypes (in words)” value in [6] is “potently replaced”. Further, the “modulation of GABA currents” value in assay [8] was “positive modulation”. Also, the “modulation of GABA-induced chloride ion flux (in words)” value at α2β3γ2-GABAA receptors is “positive allosteric modulators”.
Turning to `C[C@H]1N=C(c2ccccc2)c2cc(Br)ccc2NC1=O` [compound 3-R], the Ki in [3], in assay [4], in assay [5] and in assay [7] was more than 10000 nM each time. Besides, the “displacement … at α2β3γ2 (in words)” value in assay [5] was “inactive”. Further, the “displacement of [3H]flunitrazepam in all receptor subtypes (in words)” value in assay [6] was “failed to displace”. Besides, the “modulation of GABA currents” value in assay [8] is given as “mainly modulatory silent”. For the same compound, on α2β3γ2-GABAA receptors, the “activity in the oocyte assay at drug concentrations of ≤1 μM” value is recorded as “complete loss of activity”.
As to `C[C@@H]1N=C(c2ccccc2)c2cc(Br)ccc2NC1=O` [compound 3-S], the Ki in assay [3] stood at 102 ± 7 nM; in assay [4] it was 64 ± 2 nM; in [5] it was 61 ± 10 nM; in [7], 31 ± 5 nM. Further, in assay [5], the “displacement … at α2β3γ2 (in words)” value was “intermediate to high binding affinities”. Moreover, in assay [6], the “subtype selectivity of binding (in words)” value is listed as “low subtype selectivity”. In assay [6], the “displacement of [3H]flunitrazepam in all receptor subtypes (in words)” value is reported as “potently replaced”. The “modulation of GABA currents” value in assay [8] was “positive modulation”. At α2β3γ2-GABAA receptors, the “modulation of GABA-induced chloride ion flux (in words)” value is recorded as “positive allosteric modulators”.
